Data set [1] has as its system S180 ascites. The data set can be described thus: Anti-tumor evaluation: % increase in life span (% ILS) and survivors, S180 ascites in female CFW Swiss mice. Format: in vivo. The following applies: for Best % ILS: best over doses. As to the method:
The above-prepared compounds were evaluated against S180 ascites in female CFW Swiss mice. The mice were weighed (average weight: 20 g), placed into cages (four or six mice to a cage), and on day zero the mice were inoculated with 0.2 ml of a freshly prepared saline suspension (0.15 M NaCl) containing 1×10^7 tumor cells/ml or a total of 2×10^6 cells This inoculum was freshly prepared using "transfer" mice, which had been injected with tumor cells the previous week; it was obtained via the following steps: (1) the removal of cells from the peritoneal cavity of the sacrificed transfer mouse, (2) alternate centrifugation and washing operations (2-3 times with cold saline) to remove blood and other components, and (3) dilution of the volume of the packed cell with saline (1:3). A final centrifugation was carried out at 1000 RPM over a two minute period. A cell count was made on a 2,000-fold dilution of this 1:3 suspension by means of a Coulter Counter. A final dilution to 1×10^7 cells/ml was made, based on the average count.
On day 1, solutions of the test compounds were prepared, and each mouse in a set of four or six were injected with the same test compound at the same dosage. The doses were based on the average weight of the animals (cage weight). Also, beginning on day 1, two controls were employed containing six mice per control:
(1) Normal Control: This consisted solely of the carrier or diluent used in combination with the test compound; and
(2) Positive Control: This consisted solely of known anti-tumor agent cis-[Pt(NH3)2 Cl2 ] in saline (8 mg/kg) to test the response of the biological system.
The effectiveness of a test compound was measured in terms of the % increase in life span (%ILS) of the test mice relative to the Normal Control (Calculated from the day of tumor inoculation, i.e., day zero). To standardize the test data and permit intercomparisons, the day of evaluation was arbitrarily taken as that day corresponding to twice the mean life span (or average day of death) of the control. This established a practical upper limit of 100% on the %ILS attainable. For calculation purposes, the survivors of the day of evaluation were considered to have died on that day. The %ILS was calculated as follows: [formula] ILS values in excess of 50% were interpreted as antitumor activity, whereas values in excess of 75% indicated excellent antitumor activity.
All test compounds were evaluated in water containing 0.1-0.3% of the suspending agent "Klucel" (hydroxypropylcellulose).
Tables 3 and 4, infra, show the criticality of the ring size and the thiocyanato substituents, respectively. The protocols for determining effectiveness for the products in Tables 3 and 4 were identical to the procedure employed for determining the anti-tumor effectiveness of the products in Table 2.

Data set [2] relates to S180 Ascites. The data set is described as follows: ED90, LD50 and therapeutic index, S180 ascites. Format: in vivo, mice. Also noted: ED90: unit not given here. The note with it: for Therapeutic Index: mouse, in vivo; for ED90: dose which causes a 50% increase in life span in 90% of the mice, determined graphically. The method, then: The effective dose (ED90), lethal does (LD50) and therapeutic index (TI) were determined, via the method of Miller and Taiter (Reported by R. A. Turner, "Screening Methods in Pharmacology", Academic Press, New York, pages 61-62 (1976)).
In this study, ED90 represents the dose which causes a 50% increase in life span (ILS) in 90% of the test animals (mice), determined graphically. The LD50 value represents the lethal dose in 50% of said animals.

The subject of data set [3] is testicular and ovarian tumors. The following applies: background; cited from earlier work.
Setting [4] is: dose 5 mg/kg, on day of evaluation (twice mean life span of control).
Where [5] appears, read: dose 10 mg/kg, on day of evaluation.
The mark [6] stands for this setting: dose 20 mg/kg, on day of evaluation.
The mark [7] stands for this setting: dose 40 mg/kg, on day of evaluation.
The mark [8] stands for this setting: dose 80 mg/kg, on day of evaluation.
The mark [9] stands for this setting: dose 160 mg/kg, on day of evaluation.

Each structure is given as a SMILES string. “And” between values parts separate entries of the source, which are not always exact repeats. Equal values may be shown once.

`N#C[S][Pd][S]C#N.NC1CCCCC1N` (stereo not drawn) [Ex. 3, Bis(ThiocYanato)-1,2-Diaminocyclohexanepalladium(II)]: the “Best % ILS” value in the data set on S180 ascites [1] was 100% and 75%. Besides, the “% ILS” value with S180 ascites [1] (dose 5 mg/kg) was 0%; in the data set with S180 ascites [1] (dose 10 mg/kg), 5%; with S180 ascites [1] (dose 20 mg/kg), 1%; with S180 ascites [1] (dose 40 mg/kg), -1% and -3%; with S180 ascites [1] (dose 60 mg/kg) it was 22%; in the data set with S180 ascites [1] (dose 80 mg/kg), 75% and 100%. For the same molecule, the “% ILS” value was 79% in the data set on S180 ascites [1] (dose 100 mg/kg), 36% with S180 ascites [1] (dose 120 mg/kg), 36% in the data set on S180 ascites [1] (dose 140 mg/kg) and 39% in the data set with S180 ascites [1] (dose 160 mg/kg). Moreover, the Survivors in the data set on S180 ascites [1] (setting [4]) was 0 of 4; in the data set with S180 ascites [1] (setting [5]), 0 of 4; with S180 ascites [1] (setting [6]) it was 0 of 4; with S180 ascites [1] (setting [7]), 0 of 4; with S180 ascites [1] (dose 60 mg/kg, on day of evaluation), 0 of 4; in the data set with S180 ascites [1] (setting [8]) it was 3 of 4 and 4 of 4. For the same molecule, the Survivors in the data set with S180 ascites [1] (dose 100 mg/kg, on day of evaluation) was 2 of 4; in the data set with S180 ascites [1] (dose 120 mg/kg, on day of evaluation) it was 2 of 4; in the data set on S180 ascites [1] (dose 140 mg/kg, on day of evaluation), 1 of 4; in the data set with S180 ascites [1] (setting [9]), 1 of 4. Moreover, in the data set with S180 Ascites [2], the “Therapeutic Index” value is 2.0 and 2.8.

As for `C[NH+]1CC[NH+](C)[Pd-2]1([S]C#N)[S]C#N` (stereo not drawn) [Ex. 4, Bis(Thiocyanato)-N,N'-Dimethylethylenediaminepalladium(II)], the “Best % ILS” value in the data set with S180 ascites [1] was determined as 62%. Moreover, the “% ILS” value in the data set with S180 ascites [1] (dose 5 mg/kg) was -2%; in the data set with S180 ascites [1] (dose 10 mg/kg), 1%; with S180 ascites [1] (dose 20 mg/kg), -5%; in the data set with S180 ascites [1] (dose 40 mg/kg) it was 18%; in the data set on S180 ascites [1] (dose 80 mg/kg) it was 62%; in the data set with S180 ascites [1] (dose 160 mg/kg), -45%. For the same molecule, the Survivors in the data set with S180 ascites [1] (setting [4]) is listed as 0 of 6; in the data set with S180 ascites [1] (setting [5]), 0 of 6; in the data set on S180 ascites [1] (setting [6]) it was 0 of 6; in the data set on S180 ascites [1] (setting [7]) it was 1 of 6; in the data set on S180 ascites [1] (setting [8]), 2 of 6; in the data set with S180 ascites [1] (setting [9]), 1 of 6.

Regarding `N#C[S][Pd]1([S]C#N)[NH]c2ccccc2[NH]1` [Ex. 5, Bis(Thiocyanato)-o-Phenylenediaminepalladium(II)], the “Best % ILS” value in the data set on S180 ascites [1] was determined as 81%. Moreover, the “% ILS” value with S180 ascites [1] (dose 10 mg/kg) was 14%; in the data set on S180 ascites [1] (dose 20 mg/kg), 15%; in the data set on S180 ascites [1] (dose 40 mg/kg), 27%; in the data set with S180 ascites [1] (dose 80 mg/kg), 81%; with S180 ascites [1] (dose 160 mg/kg), 79%; in the data set with S180 ascites [1] (dose 320 mg/kg), -73%. For the same molecule, the Survivors in the data set on S180 ascites [1] (setting [5]) is 0 of 4; in the data set with S180 ascites [1] (setting [6]), 0 of 4; in the data set on S180 ascites [1] (setting [7]), 0 of 4; in the data set with S180 ascites [1] (setting [8]), 2 of 4; in the data set on S180 ascites [1] (setting [9]) it was 1 of 4; in the data set with S180 ascites [1] (dose 320 mg/kg, on day of evaluation), 0 of 4. Moreover, the ED90 in the data set on S180 Ascites [2] was determined as 130.

Take `Cc1cc2c(cc1C)[NH][Pd]([S]C#N)([S]C#N)[NH]2` [Ex. 6, Bis(Thiocyanato)-4,5-Dimethyl-o-Phenylenediaminepalladium(II)]: in the data set on S180 ascites [1], the “Best % ILS” value stood at 65%. In addition, the “% ILS” value is -1% in the data set with S180 ascites [1] (dose 5 mg/kg); 24% in the data set with S180 ascites [1] (dose 10 mg/kg); 10% in the data set on S180 ascites [1] (dose 20 mg/kg); 2% in the data set on S180 ascites [1] (dose 40 mg/kg); 13% in the data set on S180 ascites [1] (dose 80 mg/kg); 65% in the data set with S180 ascites [1] (dose 160 mg/kg). Besides, the Survivors was 0 of 6 with S180 ascites [1] (setting [4]); 0 of 6 in the data set with S180 ascites [1] (setting [5]); 0 of 6 in the data set on S180 ascites [1] (setting [6]); 0 of 6 with S180 ascites [1] (setting [7]); 0 of 6 in the data set on S180 ascites [1] (setting [8]); 2 of 6 with S180 ascites [1] (setting [9]). The molecule also yielded an ED90 in the data set on S180 Ascites [2] of 200. For the same molecule, the “Therapeutic Index” value with S180 Ascites [2] stood at 1.8.

On to `N.N.[Cl][Pt][Cl]` [Positive Control, cis-[Pt(NH3)2 Cl2]], for which the “Positive Control Survivors” value with S180 ascites [1] (8 mg/kg in saline, run beside the test compound) was 2 of 6 and 3 of 6 and 1 of 4 and 1 of 6 and 0 of 6. Besides, the “anti-tumor activity (in words)” value in data set [3] was “singularly successful in bringing about a regression of testicular and ovarian tumors”.
